Measurements taken from ChEMBL document CHEMBL3046396, “Synthesis and insecticidal evaluation of N-tert-butyl-N'-thio[1-(6-chloro-3-pyridylmethyl)-2-nitroiminoimidazolidine]-N,N'-diacylhydrazines” (2010).
Calls of active or inactive are those of the source. The rule behind the calls is not given here.

Experiments:
Mythimna separata [1] = experiment: Larvicidal activity against fourth-instar larval stage of Mythimna separata (Oriental armyworm) in compound-pretreated corn leaves assessed as mortality at 5 mg/l after 4 days; format: functional
Mythimna separata [2] = experiment: Larvicidal activity against fourth-instar larval stage of Mythimna separata (Oriental armyworm) in compound-pretreated corn leaves assessed as mortality at 10 mg/l after 4 days; format: functional
Mythimna separata [3] = experiment: Larvicidal activity against fourth-instar larval stage of Mythimna separata (Oriental armyworm) in compound-pretreated corn leaves assessed as mortality at 25 mg/l after 4 days; format: functional
Mythimna separata [4] = experiment: Larvicidal activity against fourth-instar larval stage of Mythimna separata (Oriental armyworm) in compound-pretreated corn leaves assessed as mortality at 50 mg/l after 4 days; format: functional
Aphis fabae [5] = experiment: Insecticidal activity against apterous adult stage of Aphis fabae (black bean aphids) in soybean tender shoots assessed as induction of premature, abnormal and lethal larva moult at 10 mg/l treated for 5 secs measured after 3 days by modified FAO dip test; format: functional, organism-based
Aphis fabae [6] = experiment: Insecticidal activity against apterous adult stage of Aphis fabae ( black bean aphids) in soybean tender shoots assessed as death rate at 200 mg/l treated for 5 secs measured after 48 hr by modified FAO dip test; format: functional
Mythimna separata [7] = experiment: Larvicidal activity against fourth-instar larval stage of Mythimna separata (Oriental armyworm) in compound-pretreated corn leaves assessed as mortality at 100 mg/l after 4 days; format: functional
Mythimna separata [8] = experiment: Larvicidal activity against fourth-instar larval stage of Mythimna separata (Oriental armyworm) in compound-pretreated corn leaves assessed as mortality at 200 mg/l after 4 days; format: functional
Mythimna separata [9] = experiment: Larvicidal activity against fourth-instar larval stage of Mythimna separata (Oriental armyworm) in compound-pretreated corn leaves assessed as mortality at 500 mg/l after 4 days; format: functional
Aphis fabae [10] = experiment: Insecticidal activity against apterous adult stage of Aphis fabae (black bean aphids) in soybean tender shoots assessed as mortality at 200 mg/l treated for 5 secs measured after 2 hr by modified FAO dip test; format: functional, organism-based

Structure (SMILES) | mortality at 5 µg/mL (Mythimna separata [1]) [%] | mortality at 10 µg/mL (Mythimna separata [2]) [%] | mortality at 25 µg/mL (Mythimna separata [3]) [%] | mortality at 50 µg/mL (Mythimna separata [4]) [%] | Activity (Aphis fabae [5]) | Activity (Aphis fabae [6]) [%] | mortality at 100 µg/mL (Mythimna separata [7]) [%] | mortality at 200 µg/mL (Mythimna separata [8]) [%] | mortality at 500 µg/mL (Mythimna separata [9]) [%] | Activity (Aphis fabae [10])
COc1ccccc1C(=O)N(NC(=O)c1ccccc1)C(C)(C)C | 0 | 10 | 90 | 100 | Active | 32 |  |  |  | 
CC(C)(C)N(C(=O)c1ccccc1Cl)N(SN1CCN(Cc2ccc(Cl)nc2)/C1=N/[N+](=O)[O-])C(=O)c1ccccc1 |  | 0 | 10 | 30 | Active | 84 | 50 | 60 | 100 | Active
CC(C)(C)N(C(=O)c1cccc(Cl)c1)N(SN1CCN(Cc2ccc(Cl)nc2)/C1=N/[N+](=O)[O-])C(=O)c1ccccc1 |  |  | 0 | 25 | Active | 86 | 70 | 80 | 100 | Active
COc1ccccc1C(=O)N(SN1CCN(Cc2ccc(Cl)nc2)/C1=N/[N+](=O)[O-])N(C(=O)c1ccccc1OC)C(C)(C)C |  |  | 0 | 10 | Active | 91 | 40 | 70 | 80 | Active
CC(C)(C)N(C(=O)c1ccccc1)N(SN1CCN(Cc2ccc(Cl)nc2)/C1=N/[N+](=O)[O-])C(=O)c1ccccc1 |  |  |  |  | Active | 100 | 0 | 80 | 100 | Active
CCc1ccc(C(=O)NN(C(=O)c2cc(C)cc(C)c2)C(C)(C)C)cc1 [TEBUFENOZIDE] | 70 | 100 |  |  | Active | 0 |  |  |  | 
CC(C)(C)N(NC(=O)c1ccccc1)C(=O)c1ccccc1 [RH-5849] |  | 0 | 70 | 100 | Active | 0 |  |  |  | 
COc1ccc(C(=O)NN(C(=O)c2ccc(OC)cc2)C(C)(C)C)cc1 |  |  |  | 0 | Active | 22 | 10 | 40 | 95 | 
CC(C)(C)N(NC(=O)c1ccccc1)C(=O)c1ccc(Cl)cc1 | 0 | 25 | 100 | 100 | Active | 26 |  |  |  | 
Cc1cc(C)cc(C(=O)N(N(SN2CCN(Cc3ccc(Cl)nc3)/C2=N/[N+](=O)[O-])C(=O)c2ccccc2)C(C)(C)C)c1 |  |  | 0 | 10 | Active | 80 | 55 | 85 | 95 | Active
COc1ccc(C(=O)N(NC(=O)c2ccccc2)C(C)(C)C)cc1 |  |  |  |  | Active | 0 |  | 0 | 60 | 
Cc1cc(C)cc(C(=O)NN(C(=O)c2cc(C)cc(C)c2)C(C)(C)C)c1 |  | 10 | 70 | 95 | Active | 10 |  |  |  | 
COc1ccccc1C(=O)N(N(SN1CCN(Cc2ccc(Cl)nc2)/C1=N/[N+](=O)[O-])C(=O)c1ccccc1)C(C)(C)C |  |  |  | 0 | Active | 92 | 20 | 40 | 90 | Active
COc1ccc(C(=O)N(SN2CCN(Cc3ccc(Cl)nc3)/C2=N/[N+](=O)[O-])N(C(=O)c2ccc(OC)cc2)C(C)(C)C)cc1 |  |  |  | 0 | Active | 87 | 40 | 70 | 100 | Active
COc1ccccc1C(=O)NN(C(=O)c1ccccc1OC)C(C)(C)C |  |  |  |  | Active | 0 |  | 70 | 10 | 
CCc1ccc(C(=O)N(SN2CCN(Cc3ccc(Cl)nc3)/C2=N/[N+](=O)[O-])N(C(=O)c2cc(C)cc(C)c2)C(C)(C)C)cc1 | 70 | 90 | 100 | 100 | Active | 53 |  |  |  | Active
O=[N+]([O-])/N=C1\NCCN1Cc1ccc(Cl)nc1 [IMIDACLOPRID] |  | 10 | 20 | 30 |  | 100 | 60 | 100 |  | Active
CC(C)(C)N(NC(=O)c1ccccc1)C(=O)c1ccccc1Cl | 0 | 75 | 90 | 100 | Active | 18 |  |  |  | 
CC(C)(C)N(NC(=O)c1ccccc1)C(=O)c1cccc(Cl)c1 |  | 0 | 45 | 95 | Active | 12 | 100 |  |  | 
Cc1cc(C)cc(C(=O)N(SN2CCN(Cc3ccc(Cl)nc3)/C2=N/[N+](=O)[O-])N(C(=O)c2cc(C)cc(C)c2)C(C)(C)C)c1 |  | 0 | 10 | 25 | Active | 89 | 50 | 70 | 100 | Active
CC(C)(C)N(C(=O)c1ccc(Cl)cc1)N(SN1CCN(Cc2ccc(Cl)nc2)/C1=N/[N+](=O)[O-])C(=O)c1ccccc1 |  |  | 0 | 40 | Active | 87 | 70 | 80 | 100 | Active
Cc1cc(C)cc(C(=O)N(NC(=O)c2ccccc2)C(C)(C)C)c1 |  | 10 | 60 | 100 | Active | 12 |  |  |  | 
COc1ccc(C(=O)N(N(SN2CCN(Cc3ccc(Cl)nc3)/C2=N/[N+](=O)[O-])C(=O)c2ccccc2)C(C)(C)C)cc1 |  |  |  | 0 | Active | 95 | 20 | 70 | 80 | Active
